Experimental data as given in patent US20210386367A1, “DEVICES AND SYSTEMS FOR GASTROINTESTINAL MICROBIOME DETECTION AND MANIPULATION” (Progenity, Inc., priority 2018, published 2021).
≈ marks a conversion by molar mass, not a printed value. Where two headings read alike, the source gives them in different places.

How the values were obtained:
[1] = system: E. coli ATCC 35218 (TEM-1 β-lactamase producer); test: Broth microdilution MIC (time-kill study); type: cell-based, Escherichia coli
B. fragilis ATCC 25285 = test: Broth microdilution MIC (time-kill study); type: cell-based, Bacteroides fragilis
S. agalactiae ATCC 13813 = test: Time-kill assay; type: cell-based, Streptococcus agalactiae; conditions: 2×, 4×, 8× MIC; 2, 6, 24 hr
S. pneumoniae ATCC 49619 = test: Broth microdilution MIC (time-kill study); type: cell-based, Streptococcus pneumoniae
B. ovatus MMX 3503 = test: Broth microdilution MIC (time-kill study); type: cell-based, Bacteroides ovatus
E. coli ATCC 35218 = test: Time-kill assay; type: cell-based, Escherichia coli; conditions: 2×, 4×, 8× MIC; 2, 6, 24 hr
Bacteroides fragilis = test: Agar dilution MIC, 30 clinical isolates; type: cell-based
[2] = system: E. coli (ATCC 25922, ATCC 35218, MMX 1312); test: Agar dilution MIC (spontaneous mutation study; strain in conditions); type: cell-based, Escherichia coli; conditions: Escherichia coli
S. agalactiae = test: Spontaneous mutation frequency and mutation prevention concentration (MPC); type: cell-based; conditions: S. agalactiae ATCC 13813
Text: (§1) As used herein, “spontaneous mutation frequency” refers to the rate at which mutations arise in a bacterium that can lead to resistance to develop to an antimicrobial agent. “Mutation prevention concentration” or “MPC” refers to the lowest concentration of antimicrobial agent above which the selective proliferation of resistant mutants is expected to occur only rarely.

S. pyogenes = test: as above; type: cell-based; conditions: S. pyogenes ATCC 49399; mutant prevention concentration
Text: as §1

Escherichia coli = test: as above; type: cell-based; conditions: for MPC: mutant prevention concentration
Text: as §1

B. vulgatus = test: as above; type: cell-based; conditions: B. vulgatus ATCC 8482
Text: as §1

[3] = system: E. coli spontaneous mutants; test: Broth microdilution MIC of spontaneous mutants; type: cell-based, Escherichia coli; conditions: Escherichia coli
In short: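 Spontaneous mutants from drug selection plates were tested by CLSI broth microdilution in MHB II with two-fold serial drug dilutions. Inoculum was about 5×10^5 CFU/mL, incubated aerobically at 35° C. for 18-20 hr. MIC was the lowest concentration inhibiting visible growth.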

[4] = 30 Bacteroides fragilis clinical isolates
[5] = ceftriaxone selection 8X MIC, 0.5 μg/mL
[6] = mutant prevention concentration
[7] = E. coli ATCC 25922, ceftriaxone selection 8X MIC, 0.5 μg/mL
[8] = E. coli MMX 1312, ceftriaxone selection 4X MIC, 16 μg/mL
[9] = E. coli MMX 1312, ceftriaxone selection 8X MIC, 32 μg/mL
[10] = ceftriaxone selection 4X MIC, 16 μg/mL
[11] = ceftriaxone selection 8X MIC, 32 μg/mL

`CO/N=C(\C(=O)N[C@@H]1C(=O)N2C(C(=O)O)=C(CSc3nc(=O)c(=O)[nH]n3C)CS[C@H]12)c1csc(N)n1` [ceftriaxone] showed an MIC ([1]; E. coli ATCC 35218) of 0.03 µg/mL (≈ 0.0541 µM), an MIC ([1]; Escherichia coli, ATCC35218) of 0.03 µg/mL (≈ 0.0541 µM) and an MIC (B. fragilis ATCC 25285; B. fragilis MMX 123 ATCC 25285) of 32 µg/mL (≈ 57.7 µM). For the same molecule, the MIC (B. fragilis ATCC 25285; Bacteroides fragilis, ATCC25285, broth microdilution, read-out: MIC) was 32 µg/mL (≈ 57.7 µM), the “time-kill kinetics outcome (bactericidal = ≥3 log reduction in CFU per mL)” value (S. agalactiae ATCC 13813) was “bactericidal effect at 24 hr at 8×MIC, as did ceftriaxone (6 and 24 hr)” and the MIC (S. pneumoniae ATCC 49619; S. pneumoniae ATCC 49619) was 0.06 µg/mL (≈ 0.108 µM). It also gave an MIC (S. pneumoniae ATCC 49619; Streptococcus pneumoniae, ATCC49619, broth microdilution, read-out: MIC) of 0.06 µg/mL (≈ 0.108 µM), an MIC (B. ovatus MMX 3503; Bacteroides ovatus, MMX3503, B. ovatus MMX 3504 (so in the source)) greater than 128 µg/mL and an MIC (B. ovatus MMX 3503; Bacteroides ovatus, MMX3503, broth microdilution) greater than 128 µg/mL. For the same molecule, the MIC (B. ovatus MMX 3503; broth microdilution) was 128 µg/mL (≈ 231 µM), the “time-kill kinetics outcome (bactericidal = ≥3 log reduction in CFU per mL)” value (E. coli ATCC 35218) was “bactericidal at 24 hr at 4× and 8×MIC” and the isolates resistant (Bacteroides fragilis) was “Thirty-three”. The “isolates with intermediate resistance” value (Bacteroides fragilis) was 27%, the “% I” value (Bacteroides fragilis; [4]) was 27% and the “% R” value (Bacteroides fragilis; [4]) was 33%. For the same molecule, the “% S” value (Bacteroides fragilis; [4]) was 40%, the MIC50 (Bacteroides fragilis; [4]) was 32 µg/mL (≈ 57.7 µM) and the MIC90 (Bacteroides fragilis; [4]) was greater than 128 µg/mL. For the same molecule, the MIC range (Bacteroides fragilis; [4]) was 8 to 128 µg/mL, the MIC50 (Bacteroides fragilis; Bacteroides fragilis, read-out: MIC50) was 32 µg/mL (≈ 57.7 µM) and the MIC90 (Bacteroides fragilis; Bacteroides fragilis, read-out: MIC90) was greater than 128 µg/mL. For the same molecule, the Mode (Bacteroides fragilis; modal MIC, 30 Bacteroides fragilis clinical isolates) was 16 µg/mL, the MIC ([2]; read-out: Agar MIC, E. coli ATCC 25922) was 0.06 µg/mL (≈ 0.108 µM) and the MIC ([2]; read-out: Agar MIC, E. coli ATCC 35218) was 0.03 µg/mL (≈ 0.0541 µM). The MIC ([2]; read-out: Agar MIC, E. coli MMX 1312) was 4 µg/mL (≈ 7.21 µM), the MIC ([2]; read-out: MIC value (agar dilution), E. coli MMX 1312) was 4 µg/mL (≈ 7.21 µM) and the MIC ([2]; read-out: MIC values (agar dilution), E. coli excluding E. coli MMX 1312 (stated jointly with Streptococcus spp.)) was 0.03 to 0.06 µg/mL (≈ 0.0541 to 0.108 µM). The “Average Count” value (S. agalactiae; [5]) was 0 CFU, the “Count 1” value (S. agalactiae; [5]) was 0 CFU and the “Count 2” value (S. agalactiae; [5]) was 0 CFU. For the same molecule, the “Spontaneous Mutation Frequency” value (S. agalactiae; [5]) was ≤1.73 × 10^−10, the MPC (S. agalactiae; [6]) was 0.12 µg/mL and the MPC (S. pyogenes) was 0.12 µg/mL. The “Average Count” value (Escherichia coli; [7]) was 0 CFU, the “Count 1” value (Escherichia coli; [7]) was 0 CFU and the “Count 2” value (Escherichia coli; [7]) was 0 CFU. For the same molecule, the “Spontaneous Mutation Frequency” value (Escherichia coli; [7]) was ≤7.41 × 10^−9, the MPC (Escherichia coli; E. coli ATCC 25922) was 0.25 µg/mL and the MPC (Escherichia coli; E. coli ATCC 35218) was 0.12 µg/mL. For the same molecule, the “Average Count” value (Escherichia coli; [8]) was “TNTC”, the “Count 1” value (Escherichia coli; [8]) was “TNTC” and the “Count 2” value (Escherichia coli; [8]) was “TNTC”. For the same molecule, the “Average Count” value (Escherichia coli; [9]) was “TNTC”, the “Count 1” value (Escherichia coli; [9]) was “TNTC” and the “Count 2” value (Escherichia coli; [9]) was “TNTC”. The “Average Count” value (B. vulgatus; [10]) was “TNTC”, the “Count 1” value (B. vulgatus; [10]) was “TNTC” and the “Count 2” value (B. vulgatus; [10]) was “TNTC”. For the same molecule, the “Spontaneous Mutation Frequency” value (B. vulgatus; ceftriaxone selection 4X MIC, 16 μg/mL, based on estimated count of >500 average CFU) was >8.69 × 10^−8, the “Average Count” value (B. vulgatus; [11]) was 0 CFU and the “Count 1” value (B. vulgatus; [11]) was 0 CFU. The “Count 2” value (B. vulgatus; [11]) was 0 CFU, the “Spontaneous Mutation Frequency” value (B. vulgatus; [11]) was ≤1.74 × 10^−10 and the MPC (B. vulgatus; [6]) was 32 µg/mL. It also gave an MIC ([3]; ATCC25922, E. coli ATCC 25922, selected on rifaximin 4X MIC, Colony A) of 0.03 µg/mL, an MIC ([3]; ATCC25922, E. coli ATCC 25922, selected on rifaximin 4X MIC, Colony B) of 0.03 µg/mL and an MIC ([3]; ATCC25922, E. coli ATCC 25922, selected on rifaximin 8X MIC, Colony A) of 0.03 µg/mL. For the same molecule, the MIC ([3]; ATCC25922, E. coli ATCC 25922 Parent (Table 52)) was 0.12 µg/mL, the MIC ([3]; ATCC35218, E. coli ATCC 35218, selected on rifaximin 4X MIC, Colony A) was 0.03 µg/mL and the MIC ([3]; ATCC35218, E. coli ATCC 35218, selected on rifaximin 4X MIC, Colony B) was 0.03 µg/mL. It also gave an MIC ([3]; ATCC35218, E. coli ATCC 35218, selected on rifaximin 8X MIC, Colony A) of 0.06 µg/mL, an MIC ([3]; ATCC35218, E. coli ATCC 35218, selected on rifaximin 8X MIC, Colony B) of 0.03 µg/mL and an MIC ([3]; ATCC35218, E. coli ATCC 35218 Parent (Table 52)) of 0.03 µg/mL. It also gave an MIC ([3]; E. coli MMX 1312, selected on ceftriaxone 4X MIC, Colony A) of 3 µg/mL, an MIC ([3]; E. coli MMX 1312, selected on ceftriaxone 4X MIC, Colony B) of 4 µg/mL and an MIC ([3]; E. coli MMX 1312, selected on ceftriaxone 4X MIC, Colony C) of 8 µg/mL. The MIC ([3]; E. coli MMX 1312, selected on ceftriaxone 8X MIC, Colony A) was 3 µg/mL, the MIC ([3]; E. coli MMX 1312, selected on ceftriaxone 8X MIC, Colony B) was 3 µg/mL and the MIC ([3]; E. coli MMX 1312, selected on ceftriaxone 8X MIC, Colony C) was 4 µg/mL. For the same molecule, the MIC ([3]; E. coli MMX 1312, selected on rifaximin 4X MIC, Colony A) was 2 µg/mL, the MIC ([3]; E. coli MMX 1312, selected on rifaximin 4X MIC, Colony B) was 2 µg/mL and the MIC ([3]; E. coli MMX 1312, selected on rifaximin 8X MIC, Colony A) was 8 µg/mL. The MIC ([3]; E. coli MMX 1312, selected on rifaximin 8X MIC, Colony B) was 8 µg/mL, the MIC ([3]; E. coli MMX 1312 Parent) was 4 µg/mL and the MIC ([3]; E. coli MMX 1312 Parent (Table 49)) was 4 µg/mL. It also gave an MIC ([3]; E. coli MMX 1312 Parent (Table 52)) of 4 µg/mL, an MIC ([3]; E. coli MMX 1312 mutant selected on meropenem 4X MIC, colony A) of 4 µg/mL and an MIC ([3]; E. coli MMX 1312 mutant selected on meropenem 4X MIC, colony B) of 8 µg/mL. The MIC ([3]; E. coli MMX 1312 mutant selected on meropenem 4X MIC, colony C) was 4 µg/mL, the MIC ([3]; E. coli MMX 1312 mutant selected on meropenem 8X MIC, colony A) was 4 µg/mL and the MIC ([3]; E. coli MMX 1312 mutant selected on meropenem 8X MIC, colony B) was 4 µg/mL. The MIC ([3]; E. coli MMX 1312 mutant selected on meropenem 8X MIC, colony C) was 4 µg/mL.
